From patent US20070197452A1, “Treatment of amyloid-related diseases” (priority 2006, published 2007)
Entries after “also recorded” stand apart in the source; their conditions may differ.

How the values were obtained:
TgCRND8 mice [1] = assay: Survival census (Kaplan-Meier); format: in vivo, mouse; conditions: prophylactic treatment, vs untreated, n=35 per group
Method: Survival Census: The probability of survival was assessed by the Kaplan-Meier technique, computing the probability of survival at every occurrence of death, thus making it suitable for small sample sizes. For the analyses of survival, 35 mice were used for each treatment group. The Tarone-Ware test was used to assess effects of treatments.
Survival census. The probability of survival was assessed using the Kaplan-Meier technique, computing the probability of survival at every occurrence of death, thus making it suitable for small sample sizes. For the analyses of survival, 35 mice were used for each treatment group. The Tarone-Ware test was used to assess effects of treatments.

[2] = wild-type mice
Method: Mice. […] A cohort of animals (n=10 mice per treatment arm) entered the study at five months of age, and outcomes were then analyzed after one month of treatment. The body weight, coat characteristics and in cage behaviour were monitored. Mannitol was used as a negative control for potential alterations in caloric intake. All experiments were performed according to the Canadian Council on Animal Care guidelines.
Mice. […] Mannitol was used as a negative control for potential alterations in caloric intake.

TgCRND8 mice [3] = assay: Gliosis quantitation (GFAP astrocytes, CD68 microglia); format: in vivo, mouse; conditions: prophylactic treatment; for astrogliosis (percent brain area covered): 4 and 6 months of age; for microgliosis / microglial activation (percent brain area covered): 6 months of age
Method: Gliosis Quantitation. Five randomly selected, evenly spaced, sagittal sections were collected from paraformaldehyde-fixed and frozen hemispheres of treated and control mice. Sections were immunolabelled for astrocytes with anti-rat GFAβ IgG2a (Dako; diluted 1:50) and for microglia with anti-rat CD68 IgG2b (Dako; 1:50). Digital images were captured using a Coolsnap digital camera (Photometrics, Tuscon, Ariz.) mounted to a Zeiss, Axioscope 2 Plus microscope. Images were analysed using Openlab 3.08 imaging software (Improvision, Lexington Mass.). Quantification of gliosis. Five randomly selected, evenly spaced sagittal sections from paraformaldehyde-fixed and frozen hemispheres of treated and control mice were collected. Sections were immunolabeled for astrocytes with an antibody against rat GFAβ IgG2a (Dako; diluted 1:50) and for microglia with an antibody to rat CD68 IgG2b (Dako; 1:50). Digital images were captured using a Coolsnap digital camera (Photometrics) mounted to a Zeiss, Axioscope 2 Plus microscope. Images were analyzed using Openlab 3.08 imaging software (Improvision).

TgCRND8 mice [4] = assay: Morris water maze spatial reference memory test; format: in vivo, mouse; conditions: for spatial learning performance compared with non-Tg littermates / spatial learning performance compared with untreated TgCRND8 littermates: 28 days of treatment from 5 months of age, tested at 6 months
Method: Behavioural tests: Morris Water Maze testing was performed as previously described. After non-spatial pre-training, mice underwent place discrimination training for 5 days with 4-trials per day, followed by a cued visible platform to rule out general motivational, learning deficits and motor problems, and a probe trial to evaluate memory. […] Open field test for motor activity was preformed as described previously. Duration of walking, pausing and grooming were analyzed as indices of spontaneous locomotor activity. Sensorimotor function was examined with an EconomexTM accelerating rotarod (Columbus Instruments, Columbus, Ohio), as described elsewhere. The rod was set to accelerate at a rate of 0.2 r.p.m./s, from an initial, constant speed of 5 r.p.m. Latency to fall was recorded in four daily trials, conducted at 30 min intervals. All mice were trained for seven days before testing. The test day performance score for each animal was obtained by summing its latency to fall over the four trials Behavioral tests. Morris water maze testing was carried out as previously described. After nonspatial pretraining, mice underwent place discrimination training for 5 d with four trials per day, followed by a cued visible platform trial and a probe trial. An open-field test for motor activity was carried out as described previously. Sensorimotor function was assessed with an Economex accelerating rotarod (Columbus Instruments) as previously described. Behavioural tests. Morris Water Maze testing was performed as previously described. After non-spatial pre-training, mice underwent place discrimination training for 5 days with 4-trials per day, followed by a cued visible platform to rule out general motivational, learning deficits and motor problems, and a probe trial to evaluate memory. The probe trial was conducted at 72 h after the last testing, and used an annulus-crossing index to assess spatial recall. The annulus-crossing index measures the number of passes over the original platform position relative to passes over the other three quadrants. […] Open field test for motor activity was performed as described previously

γ-secretase = assay: In vitro γ-secretase assay in HEK293 cells transfected with human APPswe; format: cell-based
Method: FIG. 9. In vitro γ-secretase assays in HEK293 cells transfected with human APPswe. After swAPP stable HEK293 cells were untreated or treated with AZD-103 or 10 nM compound E, cell membranes were used for APP-FL and —CTF detection and for e-stubs generation in vitro assays at 37° C. for 1 hr. Lanes 1&[…] AZD-103 treatment; lanes 3&4 […] AZD-103 treatment; lanes 5&6 compound E treated and lanes 7&8 untreated HEK293 APPswe cells.
Analysis of APP processing. Mouse hemi-brain samples were homogenized and spun at 109,000 g, in 20 mM Tris pH 7.4, 0.25 M sucrose, 1 mM EDTA and 1 mM EGTA, and a protease inhibitor cocktail, mixed with a mixture of 0.4% DEA (diethylamine) and 100 mMNaCl. The supernatants were analyzed for APP levels by western blotting using the monoclonal antibody 22C11, and the pellets were analyzed for APP holoprotein with the monoclonal antibody C1/6.1 as previously described. […] The target protein was probed with polyclonal APP C-terminal fragment-specific antibody (Sigma) by western blotting.

[5] = test system: transgenic TauP301L mouse model; assay: Synaptophysin quantification in TgTauP301L mice; format: in vivo; conditions: TgTauP301L mice after treatment
Method: Synaptophysin immunohistochemical staining was performed on 3 evenly spaced saggital sections of paraformaldehyde-fixed treated and control mice. Sections were immunolabelled for synaptophysin with anti-synaptophysin IgG (1:40; Roche, Laval, PQ). Digital images were captured and analyzed as described above. Within each section, three randomly chosen 100 μm2 areas of the CA1 region of the hippocampus were counted for synaptophysin reactive cell bodies and boutons. The results are expressed as the mean of the number of reactive bodies and boutons per 100 μm2 [33, 34].
Synaptophysin quantification. Immunohistochemical staining was carried out for synaptophysin on three evenly spaced sagittal sections of paraformaldehyde-fixed treated and control mice. Sections were immunolabeled for synaptophysin with synaptophysin-specific IgG (1:40; Roche). Digital images were captured and analyzed as described above. Within each section, three randomly chosen 100 μm2 areas of the CA1 region of the hippocampus were counted for synaptophysin-reactive cell bodies and boutons. The results are expressed as the mean of the number of reactive bodies and boutons per 100 μm2 [33, 34].

[6] = listed as scyllocyclohexanehexol
[7] = prophylactic, 6 weeks to 4 months of age
[8] = prophylactic, 6 weeks to 6 months of age

## OC1C(O)C(O)C(O)C(O)C1O (centres unmarked) [scyllo-cyclohexanehexol, 1,3,5/2,4,6-(scyllo-) cyclohexanehexol]
TgCRND8 mice [1]
  survival (Kaplan-Meier cumulative survival): accelerated mortality was reversed; also recorded: increased survival
TgCRND8 mice [1]; listed as AZD-103
  survival (Kaplan-Meier cumulative survival): increased survival
[2]
  survival, weight, fur condition, cage behavior: no effect on survival, weight, fur condition or cage behavior
TgCRND8 mice [3]
  astrogliosis (percent brain area covered): decreased astrogliosis much more efficiently
  microgliosis / microglial activation (percent brain area covered): attenuated microglial activation; also recorded: decreased the percent brain area covered with microgliosis
TgCRND8 mice [3]; listed as AZD-103
  astrogliosis (percent brain area covered): decreased the astrogliotic response to a greater extent; also recorded: significantly decreased
  microgliosis / microglial activation (percent brain area covered): decreased the percent brain area covered with microgliosis
TgCRND8 mice [3]; listed as Scyllo-cyclohexanehexol
  astrogliosis (percent brain area covered): decreased the astrogliotic response to a greater extent than epi-cyclohexanehexol; also recorded: significantly decreased
TgCRND8 mice [4]
  spatial learning performance compared with non-Tg littermates: indistinguishable from that of their non-Tg littermates; also recorded: indistinguishable from nontransgenic littermates
  spatial learning performance compared with untreated TgCRND8 littermates: significantly better behavioural performance compared to untreated TgCRND8 mice; also recorded: significantly better than untreated TgCRND8 littermates
TgCRND8 mice [4]; listed as AZD-103
  spatial learning performance compared with non-Tg littermates: indistinguishable from non-Tg littermates
  spatial learning performance compared with untreated TgCRND8 littermates: significantly better than untreated TgCRND8 littermates
TgCRND8 mice [4]; [6]
  spatial learning performance compared with non-Tg littermates: indistinguishable from nontransgenic littermates
  spatial learning performance compared with untreated TgCRND8 littermates: improved behavioral performance
TgCRND8 mice [4]; TgCRND8 mice treated for 2 months, ending at 7 months of age
  effect on cognition: Sustained effects
TgCRND8 mice [4]; TgCRND8 mice, 0.3-30 mg/kg/d orally, tested at 4 months of age
  spatial memory, dose-response: dose-dependent improvement
TgCRND8 mice [4]; [7]
  cognitive performance compared with non-Tg mice: approached that of nontransgenic mice
  cognitive performance compared with untreated TgCRND8 mice: significant behavioral improvement
TgCRND8 mice [4]; prophylactic, 6 weeks to 4 months of age, listed as AZD-103
  cognitive performance compared with non-Tg mice: approached that of non-Tg mice
TgCRND8 mice [4]; prophylactic, 6 weeks to 4 months of age, listed as Scyllo-cyclohexanehexol
  cognitive performance compared with non-Tg mice: indistinguishable from nontransgenic littermates on days 4 and 5 of testing
TgCRND8 mice [4]; [8]
  cognitive performance compared with non-Tg littermates: indistinguishable from nontransgenic littermates; also recorded: approached that of nontransgenic littermates
  cognitive performance compared with untreated TgCRND8 mice: significantly better cognitive function compared to untreated TgCRND8 littermates
γ-secretase
  γ-secretase enzyme activity: no effect
[5]
  synaptophysin reactivity / synaptic loss: unchanged
[5]; listed as AZD-103
  synaptophysin reactivity / synaptic loss: unchanged
[5]; [6]
  synaptophysin reactivity / synaptic loss: no effect on synaptic loss
